Reference: patent US20250382344A1, “Soluble GLP1/GIP/NPY2 Receptor Triple Agonists” (Boehringer Ingelheim International GmH, priority 2024, published 2025)
Read-outs that look alike come from different tables or passages of the source. One block for each molecule: values may come before it. *1 amine or outer side, *2 acyl side, *3 side chain or, on linkers, in order; H or OH if unused. Where a SMILES comes first, the peptide text is derived from it. Side-chain parts run from the residue outwards. [ ]: non-standard residue; d: D form. The star is where a group is joined. C18 diacid = O=C(O)CCCCCCCCCCCCCCCCC(=O)*; γGlu = O=C(O)[C@H](CCC(=O)[*:2])N[*:1]; εLys = N[C@@H](CCCCN[*:1])C(=O)[*:2]; Aib = CC(C)(N)C(=O)O

What was measured:
hGLP1R = molecular target: T1, hGLP1R (Homo sapiens, UniProt P43220); assay: hGLP1R CreLuc assay in 0.5% and 100% plasma (HEK-293 CRE-luciferase reporter cells); type: cell-based; details: HEK-293 reporter cells
T1 construct: expressed in transfected cells; host or cells: HEK-293 CRE-luciferase reporter cells
Excerpt: CHO and HEK-293 recombinant cell lines express a luciferase reporter gene under control of the CAMP responsive element (CRE). As a second recombinant protein the GLP-1 and NPY2 receptors were expressed in the reporter gene HEK cells, and the GIP receptor was expressed in the reporter gene CHO cells, respectively. Stimulation of these recombinant cells with an agonist leads to an increase of intracellular CAMP levels. In the presence of CAMP, the transcription factor CRE binding protein (CREB) binds to the CRE and to the CREB binding protein (CBP), which leads to transcription of the luciferase reporter gene. Peptides upon serial-dilution in 100% DMSO were transferred into 384-well assay plates with 5 μl pre-dispensed assay buffer (1×HBSS, 20 mM HEPES, pH7.4 supplemented with 0.5% human plasma) using acoustic dispensing on a Labcyte ECHO. Cryo-preserved transgenic reporter gene cells were thawed in assay buffer. 20 μl (10.000 cells/well) were added to the plate with the peptides and incubated for 4 hours at 37° C. in a humidified incubator. Following incubation, assay plates are equilibrated to room temperature, followed by addition of 25 μl of Bright-Glo™ Luciferase reagent, incubation at room temperature for 10 minutes and analysis of luminescence (Envision Reader). […] EC50 values were calculated by non-linear regression using sigmoid concentration-response with variable slope.
The same assays were run in the presence of 100% plasma with no additional buffer constituents.

hGIPR = molecular target: T2, hGIPR (Homo sapiens, UniProt P48546); assay: hGIPR CreLuc assay in 0.5% and 100% plasma (CHO CRE-luciferase reporter cells); type: cell-based
T2 construct: expressed in transfected cells; host or cells: CHO CRE-luciferase reporter cells
T2 sequence (P48546 22-466): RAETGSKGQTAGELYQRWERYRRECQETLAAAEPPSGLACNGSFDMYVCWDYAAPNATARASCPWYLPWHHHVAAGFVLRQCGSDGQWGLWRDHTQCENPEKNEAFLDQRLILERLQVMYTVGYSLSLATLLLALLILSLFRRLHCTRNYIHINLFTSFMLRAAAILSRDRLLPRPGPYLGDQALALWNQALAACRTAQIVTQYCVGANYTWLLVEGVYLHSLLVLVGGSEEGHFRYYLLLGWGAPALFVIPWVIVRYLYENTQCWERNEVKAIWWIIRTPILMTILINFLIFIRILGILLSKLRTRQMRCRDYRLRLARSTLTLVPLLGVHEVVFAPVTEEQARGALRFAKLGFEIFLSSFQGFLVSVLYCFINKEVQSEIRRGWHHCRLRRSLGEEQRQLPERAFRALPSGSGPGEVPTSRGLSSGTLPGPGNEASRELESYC

[1] = molecular target: T3, human neuropeptide Y2 receptor (human, UniProt P49146 1-381); assay: cell-based or functional assay
T3 sequence (looked up): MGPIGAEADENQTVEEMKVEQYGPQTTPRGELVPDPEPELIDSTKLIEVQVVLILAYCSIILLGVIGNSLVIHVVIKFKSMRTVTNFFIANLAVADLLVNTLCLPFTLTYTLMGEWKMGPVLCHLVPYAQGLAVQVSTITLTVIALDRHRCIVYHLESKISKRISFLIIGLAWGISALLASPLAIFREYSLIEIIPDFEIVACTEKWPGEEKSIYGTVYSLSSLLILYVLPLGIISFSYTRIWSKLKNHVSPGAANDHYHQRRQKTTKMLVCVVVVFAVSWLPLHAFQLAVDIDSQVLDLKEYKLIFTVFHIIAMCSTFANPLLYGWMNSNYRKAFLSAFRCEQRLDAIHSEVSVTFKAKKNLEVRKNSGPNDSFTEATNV

[2] = 0.5% human plasma, read-out: hGLP1R 0.5% hP
[3] = 0.5% human plasma, read-out: hGIPR 0.5% hP
[4] = 100% human plasma, read-out: hGIPR 100% hP

T1 sequence (P43220 24-463): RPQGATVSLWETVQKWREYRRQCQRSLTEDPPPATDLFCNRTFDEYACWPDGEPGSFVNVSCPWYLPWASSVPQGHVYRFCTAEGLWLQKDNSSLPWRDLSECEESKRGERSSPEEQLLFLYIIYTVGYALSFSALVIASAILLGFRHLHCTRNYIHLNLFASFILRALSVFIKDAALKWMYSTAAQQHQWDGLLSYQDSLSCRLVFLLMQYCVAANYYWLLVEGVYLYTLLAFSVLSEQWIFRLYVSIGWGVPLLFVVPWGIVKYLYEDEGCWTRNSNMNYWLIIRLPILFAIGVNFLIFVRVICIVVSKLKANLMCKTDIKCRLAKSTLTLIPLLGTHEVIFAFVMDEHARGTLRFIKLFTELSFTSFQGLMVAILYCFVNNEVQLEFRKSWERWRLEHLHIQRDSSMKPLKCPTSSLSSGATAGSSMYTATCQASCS

Molecule: CC[C@H](C)[C@H](NC(=O)[C@H](Cc1ccccc1)NC(=O)[C@H](C)NC(=O)C(C)(C)NC(=O)[C@H](CCC(N)=O)NC(=O)[C@H](C)NC(=O)[C@H](CCC(N)=O)NC(=O)[C@H](CCCCN)NC(=O)[C@H](CCC(=O)O)NC(=O)[C@H](CC(C)C)NC(=O)C(C)(C)NC(=O)[C@@H](NC(=O)[C@H](CO)NC(=O)[C@H](CC(C)C)NC(=O)[C@H](CC(=O)O)NC(=O)[C@H](CO)NC(=O)[C@@H](NC(=O)[C@H](Cc1ccccc1)NC(=O)[C@@H](NC(=O)CNC(=O)[C@H](CCC(=O)O)NC(=O)C(C)(C)NC(=O)[C@@H](N)Cc1ccc(O)cc1)[C@@H](C)O)[C@@H](C)O)[C@@H](C)CC)C(=O)N[C@@H](CCCNC(=N)N)C(=O)N[C@@H](Cc1c[nH]cn1)C(=O)N[C@@H](CC(C)C)C(=O)N[C@H](C(=O)N[C@@H](CC(N)=O)C(=O)N[C@@H](CCCCNC(=O)[C@@H](N)CCCCNC(=O)CC[C@H](NC(=O)CC[C@H](NC(=O)CC[C@H](NC(=O)CC[C@H](NC(=O)CC[C@H](NC(=O)CC[C@H](NC(=O)CCCCCCCCCCCCCCCCCCC(=O)O)C(=O)O)C(=O)O)C(=O)O)C(=O)O)C(=O)O)C(=O)O)C(=O)NC(C)(C)C(=O)N[C@H](C(=O)N[C@@H](CCCNC(=N)N)C(=O)N[C@@H](CCC(N)=O)C(=O)N[C@@H](CCCNC(=N)N)C(=O)N[C@@H](Cc1ccc(O)cc1)C(N)=O)[C@@H](C)O)[C@@H](C)CC [Compound 21, Y-Aib-E-G-T-F-T-S-D-L-S-I-Aib-L-E-K-Q-A-Q-Aib-A-F-I-R-H-L-I-N-K(1,3)-Aib-T-R-Q-R-Y-NH2.C20DA-gGlu-gGlu-gGlu-gGlu-gGlu-gGlu-eLys(1,2)]
EC50 (hGLP1R; hGLP1R 100% hP (nM), 100% human plasma): 13.9 nM | EC50 (hGIPR; hGIPR 0.5% hP (nM), 0.5% human plasma): 0.2 nM | EC50 (hGIPR; hGIPR 100% hP (nM), 100% human plasma): 5.6 nM

Molecule: CC[C@H](C)[C@H](NC(=O)[C@H](CC(C)C)NC(=O)[C@H](Cc1c[nH]cn1)NC(=O)[C@H](CCCNC(=N)N)NC(=O)[C@@H](NC(=O)[C@H](Cc1ccccc1)NC(=O)[C@H](C)NC(=O)C(C)(C)NC(=O)[C@H](CCC(N)=O)NC(=O)[C@H](C)NC(=O)[C@H](CCC(N)=O)NC(=O)[C@H](CCCCN)NC(=O)[C@H](CCC(=O)O)NC(=O)[C@H](CC(C)C)NC(=O)C(C)(C)NC(=O)[C@@H](NC(=O)[C@H](CO)NC(=O)[C@H](Cc1ccc(O)cc1)NC(=O)[C@H](CC(=O)O)NC(=O)[C@H](CO)NC(=O)[C@@H](NC(=O)[C@H](Cc1ccccc1)NC(=O)[C@@H](NC(=O)CNC(=O)[C@H](CCC(=O)O)NC(=O)C(C)(C)NC(=O)[C@@H](N)Cc1ccc(O)cc1)[C@@H](C)O)[C@@H](C)O)[C@@H](C)CC)C(C)C)C(=O)N[C@@H](CC(N)=O)C(=O)N[C@@H](CCCCNC(=O)CC[C@H](NC(=O)CC[C@H](NC(=O)CC[C@H](NC(=O)CC[C@H](NC(=O)CC[C@H](NC(=O)CC[C@H](NC(=O)CCCCCCCCCCCCCCCCCCC(=O)O)C(=O)O)C(=O)O)C(=O)O)C(=O)O)C(=O)O)C(=O)O)C(=O)NC(C)(C)C(=O)N[C@H](C(=O)N[C@@H](CCCNC(=N)N)C(=O)N(C)[C@@H](CCC(N)=O)C(=O)N[C@@H](CCCNC(=N)N)C(=O)N[C@@H](Cc1ccc(O)cc1)C(N)=O)[C@@H](C)O [Compound 114, Y-Aib-E-G-T-F-T-S-D-Y-S-I-Aib-L-E-K-Q-A-Q-Aib-A-F-V-R-H-L-I-N-K(1,3)-Aib-T-R-NMeQ-R-Y-NH2.C20DA-gGlu-gGlu-gGlu-gGlu-gGlu-gGlu(1,2)]
EC50 (hGLP1R; [2]): 1.8 nM | EC50 (hGIPR; [3]): 0.5 nM

Molecule: CC[C@H](C)[C@H](NC(=O)[C@H](C)NC(=O)[C@H](Cc1ccc(O)cc1)NC(=O)[C@H](CC(=O)O)NC(=O)[C@H](CO)NC(=O)[C@@H](NC(=O)[C@H](Cc1ccccc1)NC(=O)[C@@H](NC(=O)CNC(=O)[C@H](CCC(=O)O)NC(=O)C(C)(C)NC(=O)[C@@H](N)Cc1ccc(O)cc1)[C@@H](C)O)[C@@H](C)O)C(=O)NC(C)(C)C(=O)N[C@@H](CC(C)C)C(=O)N[C@@H](CCC(=O)O)C(=O)N[C@@H](CCCCN)C(=O)N[C@@H](CCC(N)=O)C(=O)N[C@@H](C)C(=O)N[C@@H](CCC(N)=O)C(=O)NC(C)(C)C(=O)N[C@@H](C)C(=O)N[C@@H](Cc1ccccc1)C(=O)N[C@H](C(=O)N[C@@H](CCCNC(=N)N)C(=O)N[C@@H](Cc1c[nH]cn1)C(=O)N[C@@H](CC(C)C)C(=O)N[C@H](C(=O)N[C@@H](CC(N)=O)C(=O)N[C@@H](CCCCNC(=O)[C@@H](N)CCCCNC(=O)CC[C@H](NC(=O)CC[C@H](NC(=O)CC[C@H](NC(=O)CC[C@H](NC(=O)CC[C@H](NC(=O)CC[C@H](NC(=O)CCCCCCCCCCCCCCCCC(=O)O)C(=O)O)C(=O)O)C(=O)O)C(=O)O)C(=O)O)C(=O)O)C(=O)NC(C)(C)C(=O)N[C@H](C(=O)N[C@@H](CCCNC(=N)N)C(=O)N[C@@H](CCC(N)=O)C(=O)N[C@@H](CCCNC(=N)N)C(=O)N[C@@H](Cc1ccc(O)cc1)C(N)=O)[C@@H](C)O)[C@@H](C)CC)C(C)C [Compound 142, Y-Aib-E-G-T-F-T-S-D-Y-A-I-Aib-L-E-K-Q-A-Q-Aib-A-F-V-R-H-L-I-N-K(1,3)-Aib-T-R-Q-R-Y-NH2.C18DA-gGlu-gGlu-gGlu-gGlu-gGlu-gGlu-eLys(1,2)]
EC50 (hGLP1R; 100% human plasma, read-out: hGLP1R 100% hP): 8 nM | EC50 (hGIPR; [3]): 0.3 nM | EC50 (hGIPR; [4]): 3.4 nM

Second part, the molecule after the results:

EC50 (hGLP1R; [2]): 0.3 nM | EC50 (hGIPR; [3]): 0.2 nM | EC50 (hGIPR; [4]): 5 nM
Molecule: CC[C@H](C)[C@H](NC(=O)[C@H](CC(C)C)NC(=O)[C@H](Cc1c[nH]cn1)NC(=O)[C@H](CCCNC(=N)N)NC(=O)[C@@H](NC(=O)[C@H](Cc1ccccc1)NC(=O)[C@H](C)NC(=O)C(C)(C)NC(=O)[C@H](CCC(N)=O)NC(=O)[C@H](C)NC(=O)[C@H](CCC(N)=O)NC(=O)[C@H](CCCNC(=N)N)NC(=O)[C@H](CC(=O)O)NC(=O)[C@H](CC(C)C)NC(=O)C(C)(C)NC(=O)[C@@H](NC(=O)[C@H](CO)NC(=O)[C@H](Cc1ccc(O)cc1)NC(=O)[C@H](CC(=O)O)NC(=O)[C@H](CO)NC(=O)[C@@H](NC(=O)[C@H](Cc1ccccc1)NC(=O)[C@@H](NC(=O)CNC(=O)[C@H](CCC(=O)O)NC(=O)C(C)(C)NC(=O)[C@@H](N)Cc1ccc(O)cc1)[C@@H](C)O)[C@@H](C)O)[C@@H](C)CC)C(C)C)C(=O)N[C@@H](CC(N)=O)C(=O)N[C@@H](CCCCNC(=O)[C@@H](N)CCCCNC(=O)CC[C@H](NC(=O)CC[C@H](NC(=O)CC[C@H](NC(=O)CC[C@H](NC(=O)CC[C@H](NC(=O)CC[C@H](NC(=O)CCCCCCCCCCCCCCCCC(=O)O)C(=O)O)C(=O)O)C(=O)O)C(=O)O)C(=O)O)C(=O)O)C(=O)NC(C)(C)C(=O)N[C@H](C(=O)N[C@@H](CCCNC(=N)N)C(=O)N[C@@H](CCC(N)=O)C(=O)N[C@@H](CCCNC(=N)N)C(=O)N[C@@H](Cc1ccc(O)cc1)C(N)=O)[C@@H](C)O [Compound 147, Y-Aib-E-G-T-F-T-S-D-Y-S-I-Aib-L-D-R-Q-A-Q-Aib-A-F-V-R-H-L-I-N-K(1,3)-Aib-T-R-Q-R-Y-NH2.C18DA-gGlu-gGlu-gGlu-gGlu-gGlu-gGlu-eLys(1,2)] (H-Y[Aib]EGTFTSDYSI[Aib]LDRQAQ[Aib]AFVRHLINK([εLys-γGlu-γGlu-γGlu-γGlu-γGlu-γGlu-C18 diacid])[Aib]TRQRY-NH2)

EC50, CreLuc reporter, 0.5% hP [1]: 17.1 nM | EC50, CreLuc reporter, 100% hP [1]: 32.9 nM
B1: Compound 165 (peptide)
peptide: YXEGTFTSDYSIALEKQAQXAFVRHLINKXTRQRY
modifications: Aib at 2, 20, 30; Lys29 epsilon-amino: C18DA-gGlu-gGlu-gGlu-gGlu-gGlu-gGlu-eLys; C-terminal amide
